Data on three molecules can be found in PMC8810914 (Biochemistry, 2021).

The target of one assay is M2 WT. As to conditions: only binding curve recorded; upper limit of the true Kd; cited from earlier work.
For a further assay, the target named is Udorn M2 WT (Influenza A virus, UniProt P0DOF5). Nature of the assay: two-electrode voltage clamp electrophysiological. In kind it is binding, influenza A virus A/Udorn/72. As to conditions: amantadine vs rimantadine. Background: Two-electrode voltage clamp holds a large cell at a set potential and records current.
Sequence of Udorn M2 WT (P0DOF5 whole entry, looked up): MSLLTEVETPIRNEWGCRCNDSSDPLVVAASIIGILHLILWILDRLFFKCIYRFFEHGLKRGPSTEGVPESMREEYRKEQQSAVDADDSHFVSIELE

Usually Kd stands for the constant that tells how readily two partners part at equilibrium. Consider `CC(N)C12CC3CC(CC(C3)C1)C2` (racemic) [rimantadine (racemic), rimantadine], for which the Kd on M2 WT is 7 µM.

As to `C[C@H](N)C12CC3CC(CC(C3)C1)C2` [(S)-rimantadine], at M2 WT, the Kd is 3.9 µM.

Consider `NC12CC3CC(CC(C3)C1)C2` [amantadine], for which the “binding affinity to Udorn M2 WT weaker than rimantadine” value on Udorn M2 WT is listed as “about 10 fold”.
